According to ChEMBL document CHEMBL3885881, “DrugMatrix”:

Species: Rattus norvegicus
Type: toxicity, organism-based, Sprague-Dawley
Details: in vivo, po, route oral GAVAGE, vehicle 100 % SALINE; for ABSOLUTE EOSINOPHIL / ABSOLUTE LYMPHOCYTE / ABSOLUTE MONOCYTE / ABSOLUTE SEGMENTED NEUTROPHIL / BASOPHIL / EOSINOPHIL / ERYTHROCYTE COUNT / HEMATOCRIT / HEMOGLOBIN / LEUKOCYTE COUNT / LYMPHOCYTE / MEAN CORPUSCULAR HEMOGLOBIN / MEAN CORPUSCULAR HEMOGLOBIN CONCENTRATION / MEAN CORPUSCULAR VOLUME / MONOCYTE / NEUTROPHIL / NUCLEATED RED BLOOD CELLS / PLATELET COUNT: tissue Blood; for ALANINE AMINOTRANSFERASE / ALBUMIN / ALKALINE PHOSPHATASE / ASPARTATE AMINOTRANSFERASE / BLOOD UREA NITROGEN / CARBON DIOXIDE / CHLORIDE / CHOLESTEROL / CREATINE PHOSPHOKINASE / CREATININE / GLUCOSE / LACTATE DEHYDROGENASE / LIPASE / PHOSPHORUS / POTASSIUM / SODIUM / TOTAL BILIRUBIN / TOTAL PROTEIN / URIC ACID: tissue Plasma
[1] = 0 mg/kg, 6 h, vehicle control, dose level Control, time 0.25 day
[2] = 0 mg/kg, 24 h, vehicle control, dose level Control, time 1 day
[3] = 10 mg/kg, 6 h, dose level Low, time 0.25 day

Description: DrugMatrix - Regimen: Single

O=[As][O-].[Na+] [SODIUM ARSENITE]
ABSOLUTE EOSINOPHIL [1]: 24 CELLS/uL
ABSOLUTE LYMPHOCYTE [1]: 11958.17 CELLS/uL
ABSOLUTE MONOCYTE [1]: 398.83 CELLS/uL
ABSOLUTE SEGMENTED NEUTROPHIL [1]: 1252.33 CELLS/uL
BASOPHIL [1]: 0%
EOSINOPHIL [1]: 0.17%
ERYTHROCYTE COUNT [1]: 5.37 x10E6/uL
HEMATOCRIT [1]: 35.6%
HEMOGLOBIN [1]: 13.05 G/DL
LEUKOCYTE COUNT [1]: 13.63 x10E3/uL
LYMPHOCYTE [1]: 87.67%
MEAN CORPUSCULAR HEMOGLOBIN [1]: 24.28 pg
MEAN CORPUSCULAR HEMOGLOBIN CONCENTRATION [1]: 36.67 G/DL
MEAN CORPUSCULAR VOLUME [1]: 66.28 fL
MONOCYTE [1]: 2.83%
NEUTROPHIL [1]: 9.33%
NUCLEATED RED BLOOD CELLS [1]: 0 /100WBC
PLATELET COUNT [1]: 947.83 x10E3/uL
ALANINE AMINOTRANSFERASE [1]: 51 u/L
ALBUMIN [1]: 4.02 G/DL
ALKALINE PHOSPHATASE [1]: 312.33 u/L
ASPARTATE AMINOTRANSFERASE [1]: 98.17 u/L
BLOOD UREA NITROGEN [1]: 9.5 mg/dL
CARBON DIOXIDE [1]: 18.83 mmol/L
CHLORIDE [1]: 103.5 MEQ/L
CHOLESTEROL [1]: 69.5 mg/dL
CREATINE PHOSPHOKINASE [1]: 580.17 u/L
CREATININE [1]: 0.53 mg/dL
GLUCOSE [1]: 175.67 mg/dL
LACTATE DEHYDROGENASE [1]: 295.5 u/L
LIPASE [1]: 8.17 u/L
PHOSPHORUS [1]: 14.12 mg/dL
POTASSIUM [1]: 5.77 MEQ/L
SODIUM [1]: 144.13 MEQ/L
TOTAL BILIRUBIN [1]: 0.12 mg/dL
TOTAL PROTEIN [1]: 4.87 G/DL
URIC ACID [1]: 2.25 mg/dL
ABSOLUTE EOSINOPHIL [2]: 0 CELLS/uL
ABSOLUTE LYMPHOCYTE [2]: 12232.83 CELLS/uL
ABSOLUTE MONOCYTE [2]: 20.33 CELLS/uL
ABSOLUTE SEGMENTED NEUTROPHIL [2]: 780.17 CELLS/uL
BASOPHIL [2]: 0%
EOSINOPHIL [2]: 0%
ERYTHROCYTE COUNT [2]: 5.18 x10E6/uL
HEMATOCRIT [2]: 33.48%
HEMOGLOBIN [2]: 13.22 G/DL
LEUKOCYTE COUNT [2]: 13.03 x10E3/uL
LYMPHOCYTE [2]: 93.33%
MEAN CORPUSCULAR HEMOGLOBIN [2]: 25.57 pg
MEAN CORPUSCULAR HEMOGLOBIN CONCENTRATION [2]: 39.52 G/DL
MEAN CORPUSCULAR VOLUME [2]: 64.65 fL
MONOCYTE [2]: 0.17%
NEUTROPHIL [2]: 6.5%
NUCLEATED RED BLOOD CELLS [2]: 0 /100WBC
PLATELET COUNT [2]: 931.5 x10E3/uL
ALANINE AMINOTRANSFERASE [2]: 60.83 u/L
ALBUMIN [2]: 4.18 G/DL
ALKALINE PHOSPHATASE [2]: 283.33 u/L
ASPARTATE AMINOTRANSFERASE [2]: 80.5 u/L
BLOOD UREA NITROGEN [2]: 11.83 mg/dL
CARBON DIOXIDE [2]: 35.33 mmol/L
CHLORIDE [2]: 98.5 MEQ/L
CHOLESTEROL [2]: 80 mg/dL
CREATINE PHOSPHOKINASE [2]: 181.83 u/L
CREATININE [2]: 0.2 mg/dL
GLUCOSE [2]: 142.67 mg/dL
LACTATE DEHYDROGENASE [2]: 65.5 u/L
LIPASE [2]: 9.83 u/L
PHOSPHORUS [2]: 9.82 mg/dL
POTASSIUM [2]: 5.69 MEQ/L
SODIUM [2]: 143.35 MEQ/L
TOTAL BILIRUBIN [2]: 0.15 mg/dL
TOTAL PROTEIN [2]: 6.2 G/DL
URIC ACID [2]: 0.42 mg/dL
ABSOLUTE EOSINOPHIL [3]: 25.17 CELLS/uL
ABSOLUTE LYMPHOCYTE [3]: 12416.17 CELLS/uL
ABSOLUTE MONOCYTE [3]: 214.33 CELLS/uL
ABSOLUTE SEGMENTED NEUTROPHIL [3]: 1561 CELLS/uL
BASOPHIL [3]: 0%
EOSINOPHIL [3]: 0.17%
ERYTHROCYTE COUNT [3]: 5.72 x10E6/uL
HEMATOCRIT [3]: 37.97%
HEMOGLOBIN [3]: 13.92 G/DL
LEUKOCYTE COUNT [3]: 14.22 x10E3/uL
LYMPHOCYTE [3]: 87.33%
MEAN CORPUSCULAR HEMOGLOBIN [3]: 24.38 pg
MEAN CORPUSCULAR HEMOGLOBIN CONCENTRATION [3]: 36.67 G/DL
MEAN CORPUSCULAR VOLUME [3]: 66.45 fL
MONOCYTE [3]: 1.5%
NEUTROPHIL [3]: 11%
NUCLEATED RED BLOOD CELLS [3]: 0 /100WBC
PLATELET COUNT [3]: 1120 x10E3/uL
ALANINE AMINOTRANSFERASE [3]: 87.17 u/L
ALBUMIN [3]: 4.02 G/DL
ALKALINE PHOSPHATASE [3]: 245.5 u/L
ASPARTATE AMINOTRANSFERASE [3]: 141.33 u/L
BLOOD UREA NITROGEN [3]: 12.83 mg/dL
CARBON DIOXIDE [3]: 19 mmol/L
CHLORIDE [3]: 104 MEQ/L
CHOLESTEROL [3]: 63.17 mg/dL
CREATINE PHOSPHOKINASE [3]: 934.5 u/L
CREATININE [3]: 0.27 mg/dL
GLUCOSE [3]: 184.33 mg/dL
LACTATE DEHYDROGENASE [3]: 393.33 u/L
LIPASE [3]: 8.83 u/L
PHOSPHORUS [3]: 14.3 mg/dL
POTASSIUM [3]: 6.23 MEQ/L
SODIUM [3]: 142.98 MEQ/L
TOTAL BILIRUBIN [3]: 0.12 mg/dL
TOTAL PROTEIN [3]: 5.28 G/DL
URIC ACID [3]: 2.03 mg/dL
